Results: the CheMixHub viscosity set

Test: xn = mol fraction of the nth substance listed

COCCO + CCCO
Details | viscosity [mPa·s]
298.15 K, 100 kPa, x1 = 0.1005 | 1.79
298.15 K, 100 kPa, x1 = 0.2016 | 1.68
298.15 K, 100 kPa, x1 = 0.3013 | 1.61
298.15 K, 100 kPa, x1 = 0.4012 | 1.56
298.15 K, 100 kPa, x1 = 0.5013 | 1.53
298.15 K, 100 kPa, x1 = 0.6005 | 1.52
298.15 K, 100 kPa, x1 = 0.7008 | 1.52
298.15 K, 100 kPa, x1 = 0.8003 | 1.52
298.15 K, 100 kPa, x1 = 0.9001 | 1.54
298.15 K, 101 kPa, x1 = 0.08067 | 1.901
298.15 K, 101 kPa, x1 = 0.1649 | 1.776
298.15 K, 101 kPa, x1 = 0.2529 | 1.692
298.15 K, 101 kPa, x1 = 0.3449 | 1.65
298.15 K, 101 kPa, x1 = 0.4413 | 1.624
298.15 K, 101 kPa, x1 = 0.5423 | 1.601
298.15 K, 101 kPa, x1 = 0.6482 | 1.59
298.15 K, 101 kPa, x1 = 0.7596 | 1.58
298.15 K, 101 kPa, x1 = 0.8767 | 1.571
298.15 K, 101.33 kPa, x1 = 0.0072 | 1.938
298.15 K, 101.33 kPa, x1 = 0.0141 | 1.926
298.15 K, 101.33 kPa, x1 = 0.0297 | 1.898
298.15 K, 101.33 kPa, x1 = 0.0471 | 1.867
298.15 K, 101.33 kPa, x1 = 0.062 | 1.844
308.15 K, 101 kPa, x1 = 0.08067 | 1.34
308.15 K, 101 kPa, x1 = 0.1014 | 1.435
308.15 K, 101 kPa, x1 = 0.1502 | 1.402
308.15 K, 101 kPa, x1 = 0.1649 | 1.264
308.15 K, 101 kPa, x1 = 0.2508 | 1.351
308.15 K, 101 kPa, x1 = 0.2529 | 1.249
308.15 K, 101 kPa, x1 = 0.3049 | 1.331
308.15 K, 101 kPa, x1 = 0.3449 | 1.227
308.15 K, 101 kPa, x1 = 0.3667 | 1.301
308.15 K, 101 kPa, x1 = 0.4257 | 1.303
308.15 K, 101 kPa, x1 = 0.4413 | 1.206
308.15 K, 101 kPa, x1 = 0.4838 | 1.28
308.15 K, 101 kPa, x1 = 0.5161 | 1.278
308.15 K, 101 kPa, x1 = 0.5378 | 1.276
308.15 K, 101 kPa, x1 = 0.5423 | 1.179
308.15 K, 101 kPa, x1 = 0.5647 | 1.279
308.15 K, 101 kPa, x1 = 0.6129 | 1.27
308.15 K, 101 kPa, x1 = 0.6482 | 1.154
308.15 K, 101 kPa, x1 = 0.67 | 1.252
308.15 K, 101 kPa, x1 = 0.7387 | 1.25
308.15 K, 101 kPa, x1 = 0.7596 | 1.131
308.15 K, 101 kPa, x1 = 0.7685 | 1.251
308.15 K, 101 kPa, x1 = 0.8213 | 1.251
308.15 K, 101 kPa, x1 = 0.8767 | 1.125
308.15 K, 101 kPa, x1 = 0.8898 | 1.253
308.15 K, 101 kPa, x1 = 0.9239 | 1.253
308.15 K, 101 kPa, x1 = 0.9491 | 1.26
308.15 K, 101 kPa, x1 = 0.9574 | 1.264
308.15 K, 101 kPa, x1 = 0.9686 | 1.277
308.15 K, 101 kPa, x2 = 0.0129 | 1.288
308.15 K, 101.33 kPa, x1 = 0.117 | 1.362
308.15 K, 101.33 kPa, x1 = 0.1795 | 1.319
308.15 K, 101.33 kPa, x1 = 0.3024 | 1.26
308.15 K, 101.33 kPa, x1 = 0.4526 | 1.207
308.15 K, 101.33 kPa, x1 = 0.5265 | 1.192
308.15 K, 101.33 kPa, x1 = 0.6439 | 1.185
308.15 K, 101.33 kPa, x1 = 0.7915 | 1.182
308.15 K, 101.33 kPa, x1 = 0.8693 | 1.174
313.15 K, 100 kPa, x1 = 0.1005 | 1.3
313.15 K, 100 kPa, x1 = 0.2016 | 1.23
313.15 K, 100 kPa, x1 = 0.3013 | 1.19
313.15 K, 100 kPa, x1 = 0.4012 | 1.16
313.15 K, 100 kPa, x1 = 0.5013 | 1.15
313.15 K, 100 kPa, x1 = 0.6005 | 1.14
313.15 K, 100 kPa, x1 = 0.7008 | 1.14
313.15 K, 100 kPa, x1 = 0.8003 | 1.15
313.15 K, 100 kPa, x1 = 0.9001 | 1.16
318.15 K, 101 kPa, x1 = 0.08067 | 1.099
318.15 K, 101 kPa, x1 = 0.1014 | 1.168
318.15 K, 101 kPa, x1 = 0.1502 | 1.142
318.15 K, 101 kPa, x1 = 0.1649 | 1.058
318.15 K, 101 kPa, x1 = 0.2508 | 1.089
318.15 K, 101 kPa, x1 = 0.2529 | 1.003
318.15 K, 101 kPa, x1 = 0.3049 | 1.079
318.15 K, 101 kPa, x1 = 0.3449 | 0.9764
318.15 K, 101 kPa, x1 = 0.3667 | 1.062
318.15 K, 101 kPa, x1 = 0.4257 | 1.052
318.15 K, 101 kPa, x1 = 0.4413 | 0.9794
318.15 K, 101 kPa, x1 = 0.4838 | 1.036
318.15 K, 101 kPa, x1 = 0.5161 | 1.029
318.15 K, 101 kPa, x1 = 0.5378 | 1.032
318.15 K, 101 kPa, x1 = 0.5423 | 0.9701
318.15 K, 101 kPa, x1 = 0.5647 | 1.028
318.15 K, 101 kPa, x1 = 0.6129 | 1.021
318.15 K, 101 kPa, x1 = 0.6482 | 0.9645
318.15 K, 101 kPa, x1 = 0.67 | 1.017
318.15 K, 101 kPa, x1 = 0.7387 | 1.018
318.15 K, 101 kPa, x1 = 0.7596 | 0.9589
318.15 K, 101 kPa, x1 = 0.7685 | 1.018
318.15 K, 101 kPa, x1 = 0.8213 | 1.016
318.15 K, 101 kPa, x1 = 0.8767 | 0.9552
318.15 K, 101 kPa, x1 = 0.8898 | 1.022
318.15 K, 101 kPa, x1 = 0.9239 | 1.025
318.15 K, 101 kPa, x1 = 0.9491 | 1.029
318.15 K, 101 kPa, x1 = 0.9574 | 1.028
318.15 K, 101 kPa, x1 = 0.9686 | 1.027
318.15 K, 101 kPa, x2 = 0.0129 | 1.029

N#C[S-].[Na+] + O
viscosity [mPa·s], 101.3 kPa
Details | 293.15 K | 298.15 K | 303.15 K | 308.15 K | 313.15 K | 318.15 K | 323.15 K
x1 = 0.000641 | 1.046 | 0.938 | 0.839 | 0.759 | 0.689 | 0.629 | 0.577
x1 = 0.0118 | 1.037 | 0.943 | 0.835 | 0.771 | 0.699 | 0.638 | 0.589
x1 = 0.01737 | 1.104 | 0.985 | 0.887 | 0.805 | 0.732 | 0.672 | 0.618
x1 = 0.03707 | 1.261 | 1.128 | 1.016 | 0.92 | 0.834 | 0.766 | 0.706
x1 = 0.05053 | 1.367 | 1.221 | 1.124 | 1.015 | 0.919 | 0.834 | 0.776
x1 = 0.07571 | 1.549 | 1.387 | 1.25 | 1.132 | 1.03 | 0.945 | 0.87
x1 = 0.09639 | 1.81 | 1.613 | 1.442 | 1.308 | 1.19 | 1.091 | 1.003
x1 = 0.1127 | 2.193 | 1.939 | 1.732 | 1.56 | 1.408 | 1.295 | 1.18
x1 = 0.1223 | 2.333 | 2.061 | 1.828 | 1.653 | 1.493 | 1.356 | 1.248
x1 = 0.1239 | 2.378 | 2.099 | 1.873 | 1.679 | 1.52 | 1.384 | 1.27
x1 = 0.1334 | 2.641 | 2.321 | 2.06 | 1.842 | 1.668 | 1.505 | 1.374
x1 = 0.1416 | 2.851 | 2.501 | 2.214 | 1.977 | 1.779 | 1.609 | 1.468
x1 = 0.1532 | 3.196 | 2.792 | 2.461 | 2.191 | 1.963 | 1.777 | 1.619
x1 = 0.1683 | 3.749 | 3.258 | 2.858 | 2.527 | 2.259 | 2.049 | 1.837
x1 = 0.1834 | 4.424 | 3.802 | – | – | – | – | –
